The source of these data is US20100197914A1, “Purine Derivatives as Adenosine Al Receptor Ligands” (priority 2007, published 2010).

The assay deals with T1, adenosine A1 receptor (Homo sapiens, UniProt P30542).
T1 sequence (P30542 1-326): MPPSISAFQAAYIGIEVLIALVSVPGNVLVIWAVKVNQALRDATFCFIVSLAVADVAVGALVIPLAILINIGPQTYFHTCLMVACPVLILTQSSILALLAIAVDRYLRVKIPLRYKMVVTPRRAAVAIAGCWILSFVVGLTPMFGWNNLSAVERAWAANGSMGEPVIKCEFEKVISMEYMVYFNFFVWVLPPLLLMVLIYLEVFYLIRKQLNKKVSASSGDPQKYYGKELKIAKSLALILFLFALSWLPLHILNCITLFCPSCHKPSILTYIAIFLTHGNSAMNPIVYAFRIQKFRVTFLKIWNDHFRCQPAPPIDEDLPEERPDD
The assay can be described thus: In vitro functional activity based on the stimulation of [35S]-GTPγS binding (SPA, agonist format). Particulars: mean of >2 measurements; A1 membranes, [35S]-GTPγS SPA assay; read-out: Mean pEC50 (converted). It counts as biochemical. The source says: In Vitro Functional Activity at the Human a Receptor Based on the Stimulation of [^35S]-GTPγS Binding
In brief the assay is based on the conventional GTPγS binding assay described by ([Lorenzen A, Guerra L, Vogt H, et al, (1996)] Interaction of full and partial agonists of the A1 adenosine receptor with receptor/G protein complexes in rat brain membranes. Mol Pharmacol. 49(5):915-26) The assay is run as a SPA assay where the A1 membranes are captured by wheatgerm agglutinin (WGA) SPA beads, through a specific interaction between WGA and carbohydrate residues of glycoprotein's on the surfaces for the membranes. Upon receptor stimulation, [^35S]-GTPγS binds specifically to the alpha subunit of the G-protein thus bringing the [^35S]-GTPγS into close proximity with the SPA beads. Emitted β particles from the [^35S]-GTPγS excite the scintillant in the beads and produce light. […] The assays were performed in a final volume of 250 μL per well in a white non-binding surface 96-well Optiplates and could be run in either an agonist format, or an antagonist format (pre-incubation with an EC50 concentration of the appropriate receptor agonist).
On the technique in general: Binding of GTPγS marks nucleotide exchange on a G protein.
With `CCC(=O)N[C@H]1C[C@@H](n2cnc3c(NC4CCCC4)ncnc32)[C@H](O)[C@@H]1O` [Example 1, N-[(1S,2R,3S,4R)-4-(6-Cyclopentylamino-purin-9-yl)-2,3-dihydroxy-cyclopentyl]-propionamide], the EC50 is 47.9 nM. For `CCC(=O)N[C@H]1C[C@@H](n2cnc3c(NC4CCCC4)nc(Cl)nc32)[C@H](O)[C@@H]1O` [Example 2, N-[(1S,2R,3S,4R)-4-(2-Chloro-6-cyclopentylamino-purin-9-yl)-2,3-dihydroxy-cyclopentyl]-propionamide] the value was 67.7 nM; for `O=C(CO)N[C@H]1C[C@@H](n2cnc3c(NC4CCCC4)ncnc32)[C@H](O)[C@@H]1O` [Example 3, N-[(1S,2R,3S,4R)-4-(6-Cyclopentylamino-purin-9-yl)-2,3-dihydroxy-cyclopentyl]-2-hydroxy-acetamide], 97.9 nM. For `O=C(CO)N[C@H]1C[C@@H](n2cnc3c(NC4CCCC4)nc(Cl)nc32)[C@H](O)[C@@H]1O` [Example 4, N-[(1S,2R,3S,4R)-4-(2-Chloro-6-cyclopentylamino-purin-9-yl)-2,3-dihydroxy-cyclopentyl]-2-hydroxy-acetamide] the value was 40.1 nM.
